According to article PMC7901650, “Garcinoic Acid Is a Natural and Selective Agonist of Pregnane X Receptor” (Journal of Medicinal Chemistry, 2020):

How the values were obtained:
HT29-MTX = test: PXR and CYP3A4 protein expression in HT29-MTX cells; type: cell-based; settings: 24 h, 1 to 25 μM
Method: HepG2 (human hepatoma cell line; ATCC HB-8065, Manassas, VA) and HepaRG (HPRGC10, Thermo Fisher Scientific) cells were maintained in culture as previously described.[47] Experiments were performed between passages 2 and 10. Cell viability, clonogenic activity, and apoptotic cell death were assessed as previously described (see Figure S2).[58],[59] HT29 human colorectal adenocarcinoma cells (ATCC HTB-38) and its mucous-secreting HT29-MTX subclone (Sigma-Aldrich) were used as intestinal cell models. HT29 cells were cultured in RPMI (Invitrogen; Life Technologies) containing 10% FBS (v/v) and 1% (v/v) L-glutamine. HT29-MTX cells (from Sigma-Aldrich) were cultured in DMEM supplemented with 2 mM glutamine, 1% nonessential amino acids, and 10% FBS. […]
Cells were harvested and lysed in ice-cold cell lysis buffer (Cell Signaling Technology) and 20 μL/mL protease inhibitor cocktail (Roche). […] After incubation in ice for 1 h and centrifugation (12 000 rpm for 20 min at 4 °C), the supernatant was recovered, and total proteins were quantified by the BCA assay kit (Pierce, Thermo Fisher Scientific). […] The band intensity was analyzed using Gel Pro analyzer Software. […]
PXR and CYP3A4 protein was assessed by immunoblot (20 µg total protein loading) in HT29 cells (from ATCC) were cultured in RPMI (Invitrogen; Life Technologies) containing 10% FBS ( v/v) and 1% ( v/v) L-glutamine. […]

RAR = test: AlphaScreen nuclear receptor panel, RAR; type: biochemical, human
Text: Ligand binding activity of GA (1) was explored via AlphaScreen technology over a panel of NRs that, along with hPXR (Figure 1A), included major human endocrine and metabolic receptors, such as the retinoid X receptor (RXR), constitutive androstane receptor (CAR), farnesoid X receptor (FXR), vitamin D receptor (VDR), liver X receptor (LXR) forms α and β, and the PPAR isoforms α, δ, and γ (see Figure S1). GA (1) was compared to its analogue δ-tocotrienol (5), the vitamers 3 and 4, their short-chain metabolites (SCMs) α-CEHC (10) and γ-CEHC (11), and the LCMs 2 and 8 (Chart 1). The test was performed in the presence of reference standard agonists for the different NRs.
The activity of nuclear receptors was determined using AlphaScreen technology, a recruitment coactivator assay previously described.[56]
(A) The test was carried out at 10 μM compound final concentration. Ligand binding to nuclear receptors was expressed as luminescence units. […] Vehicle was assessed to obtain a measure of background signal (basal evaluation). […] In presence of the ligand, the nuclear receptor LBD undergoes conformational changes, binds to the coactivator and the chemical energy is transferred from donor to acceptor beads in order to produce a signal, i.e. luminescence; in this case the compounds behaves as agonist, changing the conformation of the receptor to recruit the coactivator. […]

## C/C(=C\CC/C(C)=C/CC[C@]1(C)CCc2cc(O)cc(C)c2O1)CC/C=C(\C)C(=O)O [GA (1), (2E,6E,10E)-13-[(2R)-6-hydroxy-2,8-dimethyl-chroman-2-yl]-2,6,10-trimethyltrideca-2,6,10-trienoic acid]
HT29-MTX
  PXR and CYP3A4 protein expression: increase
RAR
  Response on RAR: No response
